Our source for the IC50 values is patent publication US12110276B2 (Genentech, Inc., priority 2021, dated 2024).

For one test, the target named is TEAD2 (Homo sapiens (Human), UniProt Q15562).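 Further: TR-FRET competition assay with His-tagged TEAD protein and a biotinylated lipid pocket probe, compound pre-incubated 30 min or 4 h at room temperature, displacement lowers signal.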
The target in another test is TEAD1 (Homo sapiens (Human), UniProt P28347). Put plainly: TR-FRET lipid pocket probe competition assay (Lipid HTRF), TEAD1.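 Further: His-tagged TEAD1 with biotinylated probe, detected via Europium anti-His and XL665 streptavidin, probe displacement lowers TR-FRET signal, IC50 from four-parameter nonlinear fit.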 The class given is binding. To be noted: 4 hours pre-incubation; read-out: Lipid HTRF TEAD1 IC50. (In general: Time-resolved FRET reads energy transfer from a long-lived donor to a nearby acceptor.)
Another test deals with TEAD4 (Homo sapiens (Human), UniProt Q15561). Put plainly: TR-FRET lipid pocket probe competition assay (Lipid HTRF), TEAD4.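 Further: His-tagged TEAD4 with biotinylated lipid-pocket probe, read by Europium anti-His and XL665 streptavidin, where probe displacement lowers the TR-FRET signal, IC50 from a four-parameter fit.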 Format: binding. The settings on record: 4 hours pre-incubation; read-out: Lipid HTRF TEAD4 IC50.
For a further test, the target named is TEAD3 (Homo sapiens (Human), UniProt Q99594). Put plainly: TR-FRET lipid pocket probe competition assay (Lipid HTRF), TEAD3. To be noted: 4 hours pre-incubation; read-out: Lipid HTRF TEAD3 IC50. The class given is binding.
TEAD3, sequence (Q99594 whole entry, species assumed): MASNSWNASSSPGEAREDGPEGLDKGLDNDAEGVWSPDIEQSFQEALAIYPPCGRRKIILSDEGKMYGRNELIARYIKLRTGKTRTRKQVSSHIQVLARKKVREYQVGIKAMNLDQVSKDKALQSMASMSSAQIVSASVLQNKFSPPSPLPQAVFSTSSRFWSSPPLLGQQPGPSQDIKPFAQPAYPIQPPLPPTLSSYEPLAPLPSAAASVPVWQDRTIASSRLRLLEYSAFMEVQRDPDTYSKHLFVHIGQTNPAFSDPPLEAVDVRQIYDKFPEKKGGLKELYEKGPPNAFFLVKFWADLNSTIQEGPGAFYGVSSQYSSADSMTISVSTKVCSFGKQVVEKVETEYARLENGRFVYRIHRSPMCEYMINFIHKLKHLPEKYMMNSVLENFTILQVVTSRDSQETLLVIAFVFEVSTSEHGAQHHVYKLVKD

TEAD1, sequence (P28347 whole entry, species assumed): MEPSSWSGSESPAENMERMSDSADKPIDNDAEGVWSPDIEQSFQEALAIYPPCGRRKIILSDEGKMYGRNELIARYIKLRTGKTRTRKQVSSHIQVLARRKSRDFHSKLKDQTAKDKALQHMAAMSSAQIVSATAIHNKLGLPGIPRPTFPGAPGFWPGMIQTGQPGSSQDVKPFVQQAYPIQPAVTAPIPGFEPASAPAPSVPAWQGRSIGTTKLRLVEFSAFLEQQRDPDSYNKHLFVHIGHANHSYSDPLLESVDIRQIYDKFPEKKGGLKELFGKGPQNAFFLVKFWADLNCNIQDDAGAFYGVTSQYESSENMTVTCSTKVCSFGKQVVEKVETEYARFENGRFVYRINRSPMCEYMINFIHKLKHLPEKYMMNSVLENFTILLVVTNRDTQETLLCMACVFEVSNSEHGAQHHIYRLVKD
TEAD4, sequence (Q15561 whole entry, species assumed): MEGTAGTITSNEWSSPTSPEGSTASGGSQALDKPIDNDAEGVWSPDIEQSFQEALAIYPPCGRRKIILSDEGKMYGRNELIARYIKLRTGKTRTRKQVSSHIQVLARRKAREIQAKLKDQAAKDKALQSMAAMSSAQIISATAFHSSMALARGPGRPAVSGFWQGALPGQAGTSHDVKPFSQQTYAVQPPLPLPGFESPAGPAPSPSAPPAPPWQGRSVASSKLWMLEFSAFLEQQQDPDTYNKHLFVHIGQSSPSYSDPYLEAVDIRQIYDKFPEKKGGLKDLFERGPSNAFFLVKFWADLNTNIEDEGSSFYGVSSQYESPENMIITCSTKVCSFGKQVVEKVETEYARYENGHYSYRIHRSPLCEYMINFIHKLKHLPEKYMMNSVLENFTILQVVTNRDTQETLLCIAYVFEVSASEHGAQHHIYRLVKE
TEAD2, sequence (Q15562 whole entry, species assumed): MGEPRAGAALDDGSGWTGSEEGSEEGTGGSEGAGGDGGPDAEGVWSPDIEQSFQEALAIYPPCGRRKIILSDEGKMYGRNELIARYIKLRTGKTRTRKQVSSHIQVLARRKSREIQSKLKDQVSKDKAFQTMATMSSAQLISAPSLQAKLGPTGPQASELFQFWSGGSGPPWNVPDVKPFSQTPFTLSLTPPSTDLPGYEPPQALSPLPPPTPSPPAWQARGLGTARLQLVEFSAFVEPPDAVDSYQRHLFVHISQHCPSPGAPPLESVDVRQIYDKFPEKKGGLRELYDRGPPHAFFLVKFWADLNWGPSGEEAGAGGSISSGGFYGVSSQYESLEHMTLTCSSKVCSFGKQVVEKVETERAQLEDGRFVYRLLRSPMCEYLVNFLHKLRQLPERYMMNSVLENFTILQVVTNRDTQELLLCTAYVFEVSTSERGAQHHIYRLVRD

`C=C(F)C(=O)N1CC(c2nn(-c3ccc(OC(F)(F)F)cc3)c3nccc(-c4cnn(CCN(C)C)c4)c23)C1` [Compound 45, 1-(3-(4-(1-(2-(Dimethylamino)ethyl)-1H-pyrazol-4-yl)-1-(4-(trifluoromethoxy)phenyl)-1H-pyrazolo[3,4-b]pyridin-3-yl)azetidin-1-yl)-2-fluoroprop-2-en-1-one]: the IC50 at TEAD2 was determined as 1500 nM; on TEAD1, 250 nM; at TEAD4, 340 nM; at TEAD3 it was 50000 nM.
Turning to `C=CC(=O)NCc1nn(-c2ccc(OC(F)(F)F)cc2)c2nccc(N3CC[C@H](O)C3)c12` [Compound 46, (S)-N-((4-(3-hydroxypyrrolidin-1-yl)-1-(4-(trifluoromethoxy)phenyl)-1H-pyrazolo[3,4-b]pyridin-3-yl)methyl)acrylamide], the IC50 was 150 nM against TEAD2, 50 nM at TEAD1, 13 nM on TEAD4 and 2100 nM at TEAD3.
The like results for `C=CC(=O)NCc1nn(-c2ccc(OC(F)(F)F)cc2)c2nccc(N3CC[C@@H](O)C3)c12` [Compound 47, (R)-N-((4-(3-hydroxypyrrolidin-1-yl)-1-(4-(trifluoromethoxy)phenyl)-1H-pyrazolo[3,4-b]pyridin-3-yl)methyl)acrylamide] were, in that order, 100 nM, 33 nM, 11 nM and 2000 nM.
`C#Cc1ccnc2c1c(C1CN(C(=O)C=C)C1)nn2-c1ccc(OC(F)(F)F)cc1` [Compound 48, 1-(3-(4-Ethynyl-1-(4-(trifluoromethoxy)phenyl)-1H-pyrazolo[3,4-b]pyridin-3-yl)azetidin-1-yl)prop-2-en-1-one]: the IC50 was 2.3 nM against TEAD2, 3.5 nM on TEAD1, 0.88 nM at TEAD4 and 4.8 nM at TEAD3.
The like results for `O=C(/C=C/CO)N1CC(c2nn(-c3ccc(OC(F)(F)F)cc3)c3nccc(-c4cn[nH]c4)c23)C1` [Compound 50, (E)-1-(3-(4-(1H-Pyrazol-4-yl)-1-(4-(trifluoromethoxy)phenyl)-1H-pyrazolo[3,4-b]pyridin-3-yl)azetidin-1-yl)-4-hydroxybut-2-en-1-one] were, in that order, 75 nM, 24 nM, 9.5 nM and 200 nM.
The like results for `C=CC(=O)NCc1nn(-c2ccc(OC(F)(F)F)cc2)c2nccc(-c3c[nH]nn3)c12` [Compound 51, N-((4-(1H-1,2,3-Triazol-4-yl)-1-(4-(trifluoromethoxy)phenyl)-1H-pyrazolo[3,4-b]pyridin-3-yl)methyl)acrylamide] were, in that order, 120 nM, 32 nM, 15 nM and 510 nM.
`C=CC(=O)NCc1nn(-c2ccc(OC(F)(F)F)cc2)c2nccc(N3CC(C#N)C3)c12` [Compound 52, N-((4-(3-Cyanoazetidin-1-yl)-1-(4-(trifluoromethoxy)phenyl)-1H-pyrazolo[3,4-b]pyridin-3-yl)methyl)acrylamide]: the IC50 was 45 nM against TEAD2, 14 nM on TEAD1, 3.4 nM on TEAD4 and 3500 nM on TEAD3.
The like results for `O=C(/C=C\Cl)NCc1nn(-c2ccc(OC(F)(F)F)cc2)c2nccc([C@H](O)CO)c12` [Compound 53, (S,Z)-3-chloro-N-((4-(1,2-dihydroxyethyl)-1-(4-(trifluoromethoxy)phenyl)-1H-pyrazolo[3,4-b]pyridin-3-yl)methyl)acrylamide] were, in that order, 36 nM, 45 nM, 3.5 nM and 50000 nM.
The like results for `C=CC(=O)NCc1nn(-c2ccc(OC(F)(F)F)cc2)c2nccc(CN3CC(O)C3)c12` [Compound 54, N-((4-((3-Hydroxyazetidin-1-yl)methyl)-1-(4-(trifluoromethoxy)phenyl)-1H-pyrazolo[3,4-b]pyridin-3-yl)methyl)acrylamide] were, in that order, 730 nM, 490 nM, 860 nM and 10000 nM.
The like results for `C=CC(=O)N(C)Cc1nn(-c2ccc(OC(F)(F)F)cc2)c2nccc(CO)c12` [Compound 55, N-((4-(Hydroxymethyl)-1-(4-(trifluoromethoxy)phenyl)-1H-pyrazolo[3,4-b]pyridin-3-yl)methyl)-N-methylacrylamide] were, in that order, 120 nM, 17 nM, 12 nM and 160 nM.
For the compound `C=CC(=O)NCc1nn(-c2ccc(OC(F)(F)F)cc2)c2nccc([C@H]3C[C@H](O)C3)c12` [Compound 56, N-((4-(trans-3-hydroxycyclobutyl)-1-(4-(trifluoromethoxy)phenyl)-1H-pyrazolo[3,4-b]pyridin-3-yl)methyl)acrylamide], the IC50 against TEAD2 amounted to 85 nM; on TEAD1, 39 nM; on TEAD4, 11 nM; at TEAD3, 50000 nM.
The like results for `C=C(F)C(=O)N1CC(c2nn(-c3ccc(OC(F)(F)F)cc3)c3nccc(N4CC(F)(C(N)=O)C4)c23)C1` [Compound 57, 3-Fluoro-1-(3-(1-(2-fluoroacryloyl)azetidin-3-yl)-1-(4-(trifluoromethoxy)phenyl)-1H-pyrazolo[3,4-b]pyridin-4-yl)azetidine-3-carboxamide] were, in that order, 37 nM, 36 nM, 5.1 nM and 350 nM.
Regarding `C=C(F)C(=O)N1CC(c2nn(-c3ccc(OC(F)(F)F)cc3)c3nccc(N4CC([C@@H](O)CO)C4)c23)C1` [Compound 58, (R)-1-(3-(4-(3-(1,2-Dihydroxyethyl)azetidin-1-yl)-1-(4-(trifluoromethoxy)phenyl)-1H-pyrazolo[3,4-b]pyridin-3-yl)azetidin-1-yl)-2-fluoroprop-2-en-1-one], the IC50 on TEAD2 worked out at 70 nM; on TEAD1 it was 38 nM; on TEAD4, 9.6 nM; at TEAD3 it was 50000 nM.
`C=CC(=O)NCc1nn(-c2ccc(OC(F)(F)F)cc2)c2nccc([C@@H](C)O)c12` [Compound 62, (R)-N-((4-(1-Hydroxyethyl)-1-(4-(trifluoromethoxy)phenyl)-1H-pyrazolo[3,4-b]pyridin-3-yl)methyl)acrylamide]: the IC50 was determined as 71 nM on TEAD2, 58 nM on TEAD1, 13 nM at TEAD4 and 860 nM on TEAD3.
As to `C=CC(=O)NCc1nn(-c2ccc(OC(F)(F)F)cc2)c2nccc([C@H](C)O)c12` [Compound 63, (S)-N-((4-(1-hydroxyethyl)-1-(4-(trifluoromethoxy)phenyl)-1H-pyrazolo[3,4-b]pyridin-3-yl)methyl)acrylamide], the IC50 against TEAD2 was 124 nM; at TEAD1 it was 135 nM; at TEAD4, 78.5 nM; on TEAD3, 10500 nM.
`C=C(F)C(=O)N1CC(c2nn(-c3ccc(OC(F)(F)F)cc3)c3nccc(-n4ccnc4)c23)C1` [Compound 64, 1-(3-(4-(1H-Imidazol-1-yl)-1-(4-(trifluoromethoxy)phenyl)-1H-pyrazolo[3,4-b]pyridin-3-yl)azetidin-1-yl)-2-fluoroprop-2-en-1-one]: the IC50 on TEAD2 stood at 170 nM; at TEAD1 it was 23 nM; on TEAD4 it was 21 nM; at TEAD3 it was 1300 nM.
The like results for `C[C@@H](O)/C=C/C(=O)N1CC(c2nn(-c3ccc(OC(F)(F)F)cc3)c3nccc(CO)c23)C1` [Compound 66, (R,E)-4-Hydroxy-1-(3-(4-(hydroxymethyl)-1-(4-(trifluoromethoxy)phenyl)-1H-pyrazolo[3,4-b]pyridin-3-yl)azetidin-1-yl)pent-2-en-1-one] were, in that order, 180 nM, 44 nM, 33 nM and 340 nM.
For the compound `C=CC(=O)NCc1nn(-c2ccc(OC(F)(F)F)cc2)c2nccc(O[C@H]3C[C@H](O)C3)c12` [Compound 67, N-((4-(trans-3-Hydroxycyclobutoxy)-1-(4-(trifluoromethoxy)phenyl)-1H-pyrazolo[3,4-b]pyridin-3-yl)methyl)acrylamide], the IC50 at TEAD2 worked out at 365 nM; at TEAD1, 100 nM; on TEAD4, 31 nM; at TEAD3, 50000 nM.
The like results for `C=C(F)C(=O)NCc1nn(-c2ccc(OC(F)(F)F)cc2)c2nccc(CO)c12` [Compound 68, 2-Fluoro-N-((4-(hydroxymethyl)-1-(4-(trifluoromethoxy)phenyl)-1H-pyrazolo[3,4-b]pyridin-3-yl)methyl)acrylamide] were, in that order, 550 nM, 71 nM, 140 nM and 980 nM.
On to `O=C(/C=C/CO)N1CC(c2nn(-c3ccc(OC(F)(F)F)cc3)c3nccc(N4CC(O)C4)c23)C1` [Compound 70, (E)-4-Hydroxy-1-(3-(4-(3-hydroxyazetidin-1-yl)-1-(4-(trifluoromethoxy)phenyl)-1H-pyrazolo[3,4-b]pyridin-3-yl)azetidin-1-yl)but-2-en-1-one], for which the IC50 at TEAD2 is 37 nM; on TEAD1, 17 nM; at TEAD4 it was 3.6 nM; on TEAD3, 140 nM.
The like results for `CC#CC(=O)N1CC(c2nn(-c3ccc(OC(F)(F)F)cc3)c3nccc([C@@H](O)CO)c23)C1` [Compound 71, (R)-1-(3-(4-(1,2-dihydroxyethyl)-1-(4-(trifluoromethoxy)phenyl)-1H-pyrazolo[3,4-b]pyridin-3-yl)azetidin-1-yl)but-2-yn-1-one] were, in that order, 5.3 nM, 32 nM, 16 nM and 43 nM.

In general, IC50 refers to the concentration at which inhibition is half-maximal.
